Experimental findings from the supplement of paper PMC11616607 are described below.

SMILES strings stand for the structures.

One assay has as its system Kuramochi. As to the kind of experiment: drug sensitivity score (DSS) from 5-point dose-response viability curve (DSS (area-under-curve based score)); higher = more sensitive (stronger growth inhibition or killing); extreme values may be limits of the assay. The settings on record: exposure time: 72 h; concentration range: 5 concentrations over 10,000-fold range. Put shortly: (§1)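 Drug sensitivity scores were calculated in Breeze software for each cell line and drug pair; higher scores indicate more sensitivity. A score of zero indicates no response. The underlying assay used 384-well plates: drugs were placed by an Echo 550 acoustic dispenser at five concentrations spanning a 10,000-fold range, 1,500 ovarian cancer or normal ovarian cells were added per well, and cells were kept 3 days at 37°C, 5% CO2. Viability was then measured with CellTiter-Glo luminescence on a PHERAstar FS.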
Molecule `CN1CC[C@H](c2c(O)cc(O)c3c(=O)cc(-c4ccccc4Cl)oc23)[C@H](O)C1` [Alvocidib] displayed a drug sensitivity score of 16.

`O=C1NC(=O)[C@@H](c2cn3c4c(cccc24)CCC3)[C@@H]1c1c[nH]c2ccccc12` [Tivantinib] registered a drug sensitivity score of 2.9.

Take `C[C@@H](Nc1cc(F)cc(F)c1)c1cc(C(=O)N(C)C)cc2c(=O)cc(N3CCOCC3)oc12` [AZD-8186]: the drug sensitivity score turned out to be 7.1.

`O=C1Cc2cc(C(=O)NC3C[C@H]4CC[C@@H](C3)N4S(=O)(=O)CC3CCN(CCCC(F)(F)F)CC3)c(Cl)cc2N1` (some centres not stated) had a drug sensitivity score of 0.

As to `C/C(=C\c1csc(C)n1)[C@@H]1C[C@@H]2O[C@]2(C)CCC[C@H](C)[C@H](O)[C@@H](C)C(=O)C(C)(C)[C@@H](O)CC(=O)N1` [Ixabepilone], the drug sensitivity score stood at 2.6.

On to `COc1ccc(COc2cc3oc(=O)c4cc(C(C)O)ccc4c3cc2OC)cc1` (configuration not stated) [Palomid-529], for which the drug sensitivity score was determined as 0.1.

Molecule `Nc1ncn([C@@H]2O[C@H](CO)[C@@H](O)[C@H]2O)c(=O)n1` [Azacitidine] came in with a drug sensitivity score of 0.9.

With `Cc1nn(C)c(COc2ccc(N3CCN(S(=O)(=O)N(C)C)CC3)cc2)c1-c1cccc2c(CCCOc3cccc4ccccc34)c(C(=O)O)n(CCN3CCOCC3)c12`, the drug sensitivity score was found to be 7.8.

The molecule `C=C1C[C@@H]2[C@H](CC[C@]3(C)C(=O)CC[C@@H]23)[C@@]2(C)C=CC(=O)C=C12` [Exemestane] gave a drug sensitivity score of 0.

As to `C[C@@H]1C=C2C(=O)O[C@@H]3CC[C@H](C1)[C@]23O` [Galiellalactone], the drug sensitivity score worked out at 0.

`Cn1c(Nc2ccc(C(F)(F)F)cc2)nc2cc(Oc3ccnc(-c4ncc(C(F)(F)F)[nH]4)c3)ccc21` [NVP-RAF265]: the drug sensitivity score is 0.

Consider `Cn1ncc(Cl)c1-c1cc(C(=O)N[C@H](CN)Cc2ccc(F)c(F)c2)oc1Cl` [Uprosertib], for which the drug sensitivity score came to 1.

As for `CC1=C2C[C@H]3[C@@H](CC[C@@H]4C[C@H](NS(C)(=O)=O)CC[C@@]43C)[C@@H]2CC[C@@]2(C1)O[C@@H]1C[C@H](C)CN[C@H]1[C@H]2C` [Saridegib], the drug sensitivity score amounted to 0.

As for `COc1cc2c(Oc3ccc(NC(=O)C4(C(=O)Nc5ccc(F)cc5)CC4)cc3F)ccnc2cc1OCCCN1CCOCC1` [Foretinib], the drug sensitivity score came out at 2.7.

Turning to `COCCOc1cnc2ccn([C@H](C)c3nnc4c(F)cc(-c5cnn(C)c5)cn34)c(=O)c2c1` [AMG-337], the drug sensitivity score was found to be 0.

With `Nc1ccccc1NC(=O)c1ccc(CNC(=O)OCc2cccnc2)cc1` [Entinostat], the drug sensitivity score turned out to be 3.2.

For the next assay, the system named is CAOV3. The description is as above. The note with it: exposure time: 72 h; concentration range: 5 concentrations over 10,000-fold range. An outline of the steps: as §1
Molecule `Cc1cnc(-c2ccccc2C(C)C)nc1NCc1ccc(-n2ccnn2)cc1` [ML323] gave a drug sensitivity score of 0.3.

In turn, `Cc1ccc(C(=O)Nc2cccc(C(F)(F)F)c2)cc1Nc1nc(-c2cccnc2)nc2c1cnn2C` [NVP-BHG712] displayed a drug sensitivity score of 0.

As to `COc1cc2c(cc1OCCCN1CCCC1)N=C(N)C21CCC1` [A-366], the drug sensitivity score was determined as 0.3.

In turn, `CS(=O)(=O)c1ccc(C(=O)Nc2ccc(Cl)c(-c3ccccn3)c2)c(Cl)c1` [Vismodegib] yielded a drug sensitivity score of 0.

In the case of `COc1cc2c(Oc3ccc4[nH]c(C)cc4c3F)ncnc2cc1OCCCN1CCCC1` [Cediranib], the drug sensitivity score amounted to 0.

As for `CCNC(=O)c1noc(-c2cc(C(C)C)c(O)cc2O)c1-c1ccc(CN2CCOCC2)cc1` [Luminespib], the drug sensitivity score was determined as 16.8.

As for `Cc1cnc(Nc2ccc(OCCN3CCCC3)cc2)nc1Nc1cccc(S(=O)(=O)NC(C)(C)C)c1` [Fedratinib], the drug sensitivity score was 6.5.

`CNC(=O)c1ccc(C)c(-n2c(C)cc(OCc3ccc(F)cc3F)c(Br)c2=O)c1` displayed a drug sensitivity score of 0.

Regarding `Cc1nc(Nc2n[nH]c3c2CN(C(=O)N[C@H](CN(C)C)c2ccccc2)C3(C)C)c2sccc2n1`, the drug sensitivity score was determined as 17.5.

In turn, `CCN(CC)Cc1ccc2cc(COC(=O)Nc3ccc(C(=O)NO)cc3)ccc2c1` [Givinostat] had a drug sensitivity score of 7.3.

As to `CC(C)(C)Cn1c(N)nc2ccc(-c3[nH]c(C(C)(C)C)nc3-c3ccc(F)cc3)nc21` [Ralimetinib], the drug sensitivity score was found to be 2.9.

As to `COc1cc2nccc(Oc3ccc(NC(=O)NC4CC4)c(Cl)c3)c2cc1C(N)=O` [Lenvatinib], the drug sensitivity score was 0.

Molecule `S=c1[nH]cnc2nc[nH]c12` [Mercaptopurine] displayed a drug sensitivity score of 12.4.

As for `CNc1nc(Nc2cn(C(C)(C)C#N)nc2C)ncc1C(F)(F)F` [GNE-0877], the drug sensitivity score was determined as 0.

As for `COc1cc2nccc(Oc3ccc(NC(=O)C4(C(=O)Nc5ccc(F)cc5)CC4)cc3)c2cc1OC` [Cabozantinib], the drug sensitivity score was 0.4.

For the molecule `CN1CC[C@H](c2c(O)cc(O)c3c(=O)cc(-c4ccccc4Cl)oc23)[C@H](O)C1` [Alvocidib], the drug sensitivity score was determined as 14.9.

The molecule `O=C1NC(=O)[C@@H](c2cn3c4c(cccc24)CCC3)[C@@H]1c1c[nH]c2ccccc12` [Tivantinib] returned a drug sensitivity score of 3.7.

Regarding `C[C@@H](Nc1cc(F)cc(F)c1)c1cc(C(=O)N(C)C)cc2c(=O)cc(N3CCOCC3)oc12` [AZD-8186], the drug sensitivity score amounted to 2.1.

In turn, `O=C1Cc2cc(C(=O)NC3C[C@H]4CC[C@@H](C3)N4S(=O)(=O)CC3CCN(CCCC(F)(F)F)CC3)c(Cl)cc2N1` (some centres not stated) yielded a drug sensitivity score of 0.

As for `C/C(=C\c1csc(C)n1)[C@@H]1C[C@@H]2O[C@]2(C)CCC[C@H](C)[C@H](O)[C@@H](C)C(=O)C(C)(C)[C@@H](O)CC(=O)N1` [Ixabepilone], the drug sensitivity score worked out at 4.6.

For the molecule `COc1ccc(COc2cc3oc(=O)c4cc(C(C)O)ccc4c3cc2OC)cc1` (configuration not stated) [Palomid-529], the drug sensitivity score stood at 0.

`Nc1ncn([C@@H]2O[C@H](CO)[C@@H](O)[C@H]2O)c(=O)n1` [Azacitidine]: the drug sensitivity score was determined as 1.7.

For the molecule `Cc1nn(C)c(COc2ccc(N3CCN(S(=O)(=O)N(C)C)CC3)cc2)c1-c1cccc2c(CCCOc3cccc4ccccc34)c(C(=O)O)n(CCN3CCOCC3)c12`, the drug sensitivity score came out at 4.9.

Take `C=C1C[C@@H]2[C@H](CC[C@]3(C)C(=O)CC[C@@H]23)[C@@]2(C)C=CC(=O)C=C12` [Exemestane]: the drug sensitivity score is 0.

`C[C@@H]1C=C2C(=O)O[C@@H]3CC[C@H](C1)[C@]23O` [Galiellalactone] registered a drug sensitivity score of 6.1.

On to `Cn1c(Nc2ccc(C(F)(F)F)cc2)nc2cc(Oc3ccnc(-c4ncc(C(F)(F)F)[nH]4)c3)ccc21` [NVP-RAF265], for which the drug sensitivity score was found to be 2.2.

Regarding `Cn1ncc(Cl)c1-c1cc(C(=O)N[C@H](CN)Cc2ccc(F)c(F)c2)oc1Cl` [Uprosertib], the drug sensitivity score came to 0.9.

`CC1=C2C[C@H]3[C@@H](CC[C@@H]4C[C@H](NS(C)(=O)=O)CC[C@@]43C)[C@@H]2CC[C@@]2(C1)O[C@@H]1C[C@H](C)CN[C@H]1[C@H]2C` [Saridegib]: the drug sensitivity score was determined as 0.5.

Consider `COc1cc2c(Oc3ccc(NC(=O)C4(C(=O)Nc5ccc(F)cc5)CC4)cc3F)ccnc2cc1OCCCN1CCOCC1` [Foretinib], for which the drug sensitivity score is 6.9.

As to `COCCOc1cnc2ccn([C@H](C)c3nnc4c(F)cc(-c5cnn(C)c5)cn34)c(=O)c2c1` [AMG-337], the drug sensitivity score came out at 0.

`Nc1ccccc1NC(=O)c1ccc(CNC(=O)OCc2cccnc2)cc1` [Entinostat] returned a drug sensitivity score of 5.5.
